US20230158032A1, “PHARMACEUTICAL COMBINATION FOR THE TREATMENT OF MYELOPROLIFERATIVE NEOPLASMS” (Universitätsklinikum Jena, priority 2020, published 2023)
pIC50: −log10 of the molar value. Entries after “also recorded” stand apart in the source; their conditions may differ. Like-named read-outs stand apart in the source and are kept apart here.

Assays:
Format in all cases: cell-based
murine Jak2 V617F cells = test: MTS growth and proliferation assay of splicing factor inhibitors with and without Ruxolitinib; conditions: for pIC50: read-out: IC50, concentration of functional inhibitor needed to inhibit cell growth of 50%; for effect between the functional inhibitor and Ruxolitinib on cell growth inhibition: combination with Ruxolitinib (0.5 μM)
Procedure: Growth and proliferation was measured by MTS assay. Data shown are representative of 2 independent experiments with 8 technical replicates, mean±SD. The used splicing factor inhibitors are: a) GSK3326595, a Prmt5 inhibitor; b) Indisulam, a Rbm39 inhibitor; c) Herboxidiene; d) Pladienolide B.
The plates were read at 490 nm in Tecan Infinite M200 and the responses were analyzed using Graph Pad Prism.
After 72 hours, the incubation was stopped and growth measured by MTS assay.

Ybx1 pS30 and pS34 = test: Drug-perturbed phosphoproteome profiling of Ybx1 phosphosites; conditions: 10 μM for 1 hour, murine Jak2V617F BaF3
From the text: The size and colour of the dots are proportional to the phosphosite intensity, Z-scored (log 2 intensity).
The cells were lysed in Gmdcl buffer and processed as mentioned in the phospho-proteome sample preparation protocol.

[1] = test system: primary human Jak2-mutated cells; test: Phosphoproteome of primary patient samples after Jak-i exposure; conditions: in vitro and in vivo exposure, 2 hours
Procedure: In brief, peripheral blood samples from patients with Jak2 mutated myeloproliferative neoplasms were collected, granulocytes isolated, and treated with DMSO or Ruxolitinb 0.5 μM for 2 hours (either in vitro or in vivo). Cells were lysed and processed in 4% SDC buffer (4% SDC, 100 mM Tris pH8.5, 10 mM TCEP and 40 mM CAA), heated for 5 mins at 95° C. and cooled on ice for 15 min. Lysed samples were sonicated, heated again for 5 mins and BCA quantified. Approximately 350 μg of proteins were digested with LysC and Trypsin overnight at room temperature and phosphopeptides were enriched by TiO2 beads as described elsewhere.

[2] = Mus musculus, 72 h, in the presence of Ruxolitinib (0.5 μM), 72 hours, MTS
[3] = functional inhibitor alone, 72 hours, MTS
[4] = in the presence of Ruxolitinib (0.5 μM), 72 hours, MTS

CC(=O)N1CCC(Nc2cc(C(=O)NC[C@H](O)CN3CCc4ccccc4C3)ncn2)CC1 [GSK3326595]
pIC50 (murine Jak2 V617F cells; Mus musculus, 72 h, functional inhibitor alone, 72 hours, MTS): 6.00
pIC50 (murine Jak2 V617F cells; [2]): 8.40
effect between the functional inhibitor and Ruxolitinib on cell growth inhibition (murine Jak2 V617F cells): synergistic effect

CO[C@H]([C@@H](C)[C@H]1O[C@]1(C)C[C@H](C)/C=C/C=C(\C)[C@H]1O[C@@H](CC(=O)O)CC[C@@H]1C)[C@@H](C)O [Herboxidiene]
effect between the functional inhibitor and Ruxolitinib on cell growth inhibition (murine Jak2 V617F cells): synergistic effect
pIC50 (murine Jak2 V617F cells; [3]): ~7.80
pIC50 (murine Jak2 V617F cells; [4]): ~8.10

NS(=O)(=O)c1ccc(S(=O)(=O)Nc2cccc3c(Cl)c[nH]c23)cc1 [Indisulam]
pIC50 (murine Jak2 V617F cells; [2]): 6.30
effect between the functional inhibitor and Ruxolitinib on cell growth inhibition (murine Jak2 V617F cells): synergistic effect
50% inhibition of cell growth reached or not (murine Jak2 V617F cells; [3]): not able to reach a 50% inhibition of cell growth

O=C(NOC[C@H](O)CO)c1ccc(F)c(F)c1Nc1ccc(I)cc1F [PD0325901]
Ybx1 phosphorylation at pS30 and pS34 (Ybx1 pS30 and pS34): responsive; also recorded: able to inhibit

N#CC[C@H](C1CCCC1)n1cc(-c2ncnc3[nH]ccc23)cn1 [Ruxolitinib]
phosphosites significantly altered [1]: 618 phosphosites

Pladienolide B
effect between the functional inhibitor and Ruxolitinib on cell growth inhibition (murine Jak2 V617F cells): synergistic effect
pIC50 (murine Jak2 V617F cells; [3]): ~7.82
pIC50 (murine Jak2 V617F cells; [4]): ~8.15
